pKi: −log10 of the molar value.

The assay has as its target Chymotrypsin A (Bos taurus). The assay can be described thus: In vitro inhibitory activity was determined against bovine pancreas chymotrypsin.
Take `Cc1cccc(-c2ncc(N)c(=O)n2CC(=O)NC(Cc2ccccc2)C(=O)C(F)(F)C(=O)NCCC(=O)O)c1` (centres undefined) [3-{4-[2-(5-Amino-6-oxo-2-m-tolyl-6H-pyrimidin-1-yl)-acetylamino]-2,2-difluoro-3-oxo-5-phenyl-pentanoylamino}-propionic acid]: the negative-log Ki (pKi) was 5.84.
To `Cc1cccc(-c2ncc(N)c(=O)n2CC(=O)NC(Cc2ccccc2)C(=O)C(F)(F)C(=O)NCc2ccccc2)c1` (centres undefined) [4-[2-(5-Amino-6-oxo-2-m-tolyl-6H-pyrimidin-1-yl)-acetylamino]-2,2-difluoro-3-oxo-5-phenyl-pentanoic acid benzylamide] belongs 5.72.
For `Cc1cccc(-c2ncc(N)c(=O)n2CC(=O)NC(Cc2ccccc2)C(=O)C(F)(F)C(=O)NCC(N)=O)c1` (centres undefined) [4-[2-(5-Amino-6-oxo-2-m-tolyl-6H-pyrimidin-1-yl)-acetylamino]-2,2-difluoro-3-oxo-5-phenyl-pentanoic acid carbamoylmethyl-amide], the pKi was 5.84. The pKi values of the last two molecules are within 0.2 log units of each other.
For the molecule `Nc1cnc(-c2ccc(F)cc2)n(CC(=O)NC(Cc2ccccc2)C(=O)C(F)(F)C(=O)NCc2ccccc2)c1=O` (centres undefined) [4-{2-[5-Amino-2-(4-fluoro-phenyl)-6-oxo-6H-pyrimidin-1-yl]-acetylamino}-2,2-difluoro-3-oxo-5-phenyl-pentanoic acid benzylamide], the pKi was 5.48.

Usually pKi stands for the Ki on a negative log10 scale, so that one unit is a factor of ten.
